In patent publication US20240317754A1 (priority 2020, published 2024):
Entries after “also recorded” stand apart in the source; their conditions may differ. Read-outs that look alike come from different tables or passages of the source.

How the values were obtained:
SARS-CoV replicon = assay: microbe, parasite or virus in culture; assay type: cell-based; conditions: for IC50 / inhibition at 10 µM: Severe acute respiratory syndrome coronavirus, HEK-293T, 60 h
SARS-CoV-2 (B.1) = assay: microbe, parasite or virus in culture; assay type: cell-based
MHV-A59 = assay: In vivo efficacy in murine hepatitis virus (MHV-A59) infected BALB/c mice
Description: • Mice: SPF-grade male BALB/c mice, 100, weighing 18-22 g. • Operation: The experimental mice were infected with MHV-A59 nasal drops and randomly divided into ten groups (n=10 each).
The mice were monitored daily for disease symptoms, including body weight, clinical symptoms, and death, for 14 days. Record the body weight changes of mice in each treatment group after virus infection (FIG. 4A) and survival curves (FIG. 4B). The fluorescence quantitative PCR method was used to determine the virus titer in mouse liver 72 hours after virus infection (FIG. 4C).

SARS-CoV-2 = assay: In vivo efficacy against SARS-CoV-2 in hACE2 humanized mice
[1] = PK study in cynomolgus monkeys; assay type: in vivo
Method: Three male cynomolgus monkeys weighing 3-5 kg were used for the pharmacokinetic study. Compound AVT006 was administered intragastrically with the dose of 10 mg/kg on day 1. After administration, the blood samples for plasma were collected from a jugular vein from each monkey over 48 hours. The plasma samples (1 mL) were obtained at predose, and 0.083, 0.25, 0.5, 1, 2, 4, 8, 24 and 48 h postdose. After recovery for three days, compound AVT006 was administered intravenously with a dose of 5 mg/kg at day 5. The blood samples for plasma were collected from a jugular vein from each monkey over 48 hours. 1 mL plasma samples were obtained at predose, and 0.083, 0.25, 0.5, 1, 2, 4, 8, 24 and 48 h postdose. Samples were treated with anticoagulant EDTA-K2 and centrifuged under 2000 g for 10 min at 4° C. The supernatants (plasma) were collected and stored at −65° C. for future analysis. The drug concentration in each sample was tested by Watson LIMS 7.5 SP1 HPLC/MS. The pharmacokinetic parameters were calculated using WinNonlin 6.3 software.

SARS-CoV-2 replicon = assay: microbe, parasite or virus in culture; assay type: cell-based; conditions: HEK293T cells; for inhibition at 10 µM / IC50: Severe acute respiratory syndrome coronavirus 2, HEK-293T, 60 h
[2] = as reported by NIH OpenData Portal; species not printed (context non-human primates); cited from earlier work
[3] = male, cynomolgus monkey, plasma, IV 5 mg/kg, analyzed ATV006

CC(C)C(=O)OC[C@H]1O[C@@](C#N)(c2ccc3c(N)ncnn23)[C@H](O)[C@@H]1O [ATV006, ((2R,3S,4R,5R)-5-(4-aminopyrrolo[2,1-f][1,2,4]triazin-7-yl)-5-cyano-3,4-dihydroxytetrahydrofuran-2-yl)methyl isobutyrate]
activity relative to GS-441524 (SARS-CoV replicon): twice that of compound GS-441524 | IC50 (SARS-CoV replicon): 0.57 µM | inhibition at 10 µM (SARS-CoV replicon): 99.2% | IC50 (SARS-CoV-2 (B.1); Severe acute respiratory syndrome coronavirus 2, Vero C1008, 48 h): 1.36 µM | day after infection on which mice began to die (MHV-A59; BALB/c mice, 2 mg/kg IG): 4 days | median death rate (MHV-A59; BALB/c mice, 2 mg/kg IG): 6 days | mortality rate (MHV-A59; BALB/c mice, 2 mg/kg IG, by day 10 after infection, vs control group p=0.0291): 100% | survival (MHV-A59; BALB/c mice, 2 mg/kg IG, in words, 2 mg/kg): positive effect in prolonging the survival time of animals; also recorded: increased the survival rate | death and weight loss of mice (MHV-A59; BALB/c mice, ATV006 IG at doses except 2 mg/kg (5-50 mg/kg), 14 days, in words): can avoid the death and weight loss of mice at low doses | antiviral activity in vivo compared with GS-441524 and RDV (MHV-A59; BALB/c mice, in words): better antiviral activity in vivo | replication of the virus in the liver (MHV-A59; BALB/c mice, virus titer in liver 72 hours after infection, in words): significantly inhibit the replication of the virus in the liver | antiviral effect (MHV-A59; mice, medium dose 5 mg/kg-50 mg/kg, in words): excellent antiviral effect in a dose-dependent manner | amount of viral genome (N gene) in lung tissue (SARS-CoV-2): significantly lower than that in the control group | amount of viral subgenome (subgenomic N) in lung tissue (SARS-CoV-2): significantly lower than that in the control group | metabolism to GS-441524 ([1]; in words): quickly metabolized into the active metabolite GS-441524 | AUC(0-inf) [1, 3]: 19.6 ± 5.43 ng·h/mL | AUC(0-t) [1, 3]: 19.4 ± 5.35 ng·h/mL | Cmax [1, 3]: 132 ± 37.4 ng/mL | Tmax [1, 3]: 5 min | half-life [1, 3]: 4.15 ± 0.446 min | antiviral activity relative to GS-441524 (SARS-CoV-2 replicon; in words): lower IC50 values and higher antiviral activity | inhibition of SARS-CoV-2 replicon replication (SARS-CoV-2 replicon; in words): significant inhibitory effects | inhibition at 10 µM (SARS-CoV-2 replicon): 98.6% | IC50 (SARS-CoV-2 replicon): 0.51 µM

N#C[C@@]1(c2ccc3c(N)ncnn23)O[C@H](CO)[C@@H](O)[C@H]1O [GS-441524, reference compound]
IC50 (SARS-CoV replicon): 1.1 µM | inhibition at 10 µM (SARS-CoV replicon): 99.8% | IC50 (SARS-CoV-2 (B.1)): 2.28 µM | bioavailability [2]: 8.3% | inhibition at 10 µM (SARS-CoV-2 replicon): 99.8% | IC50 (SARS-CoV-2 replicon): 0.95 µM
